Patent EP4628074A1, “N-PALMITOYLETHANOLAMIDE FOR USE IN COMBINATION WITH A NON-STEROIDAL ANTI-INFLAMMATORY DRUG IN THE TREATMENT OF INFLAMMATORY PAIN” (priority 2024, dated 2025)
Values joined by “and” are separate entries in the source; they are usually repeats but may differ in a detail not shown here. Equal values may be shown once. “Also recorded” adds a separate entry of the source.

Columns and labels:
[1] = system: CFA-induced inflammatory pain; experiment: Paw pressure test, CFA-induced inflammatory pain, single (acute) oral administration (Experiment 1); format: in vivo, male Sprague-Dawley rats; details: for Pr > F: PEA 10 mg/kg
Description: In the in vivo experimentation, male Sprague-Dawley rats (200-250 g) (Envigo, Varese, Italy) fed "ad libitum" and housed in cages with a controlled sleep/wake cycle were used.
Before the start of the study, the animals were subjected to a 1-week acclimatization period at the Center for Laboratory Animal Sheltering (Ce.S.A.L.) of the University of Florence, following all experimental procedures and protocols compliant with the principles of care and welfare of laboratory animals approved by the Italian Ministry of Health (Italian Legislative Decree 2014/26), European directives (EU Directive 2010/63) and the ARRIVE guidelines.
In order to cause inflammatory pain, Complete Freund's Adjuvant (CFA) was injected at a rate of 50 µL into the joint cavity of the left leg between the tibiofibular and tarsal bones after light anesthesia with 2% isoflurane. The control group was subjected to the same procedure, injecting an equal volume of saline solution (vehicle).
The animals were divided into 9 groups of 6 rats each and treated acutely per os with a single administration, starting from the seventh day after the induction of joint damage. • Group 1: healthy rats subjected to intra-articular injection of saline (vehicle group) • Group 2: rats injected with CFA and treated with 1% CMC, corresponding to the vehicle in which the compounds for the treatments of the following groups were suspended (CFA group); • Group 3: rats injected with CFA and treated with micronized PEA 10 mg/kg; • Group 4: rats injected with CFA and treated with diclofenac 30 mg/kg; • Group 5: rats injected with CFA and treated with diclofenac 3 mg/kg; • Group 6: rats injected with CFA and treated with diclofenac 3 mg/kg + micronized PEA 10 mg/kg; • Group 7: rats injected with CFA and treated with meloxicam 30 mg/kg; • Group 8: rats injected with CFA and treated with meloxicam 3 mg/kg; • Group 9: rats injected with CFA and treated with meloxicam 3 mg/kg + micronized PEA 10 mg/kg.
All animals were subjected to the paw pressure test at the level of the ipsilateral paw, performed before (T0) or after 15, 30, 45 and 60 minutes after the single administration of the treatment (T15, T30, T45 and T60, respectively). In particular, the nociceptive threshold was calculated with an analgesiometer (Ugo Basile, Varese, Italy) by applying an increasing pressure at constant speed (32 g/s) by means of a non-pointed conical support on the dorsal surface of the ipsilateral paw with respect to the injection of CFA (or vehicle). The nociceptive threshold was expressed as the force (in decagrams, dag) to which the animal reacts by retracting the paw or vocalizing (Leighton GE et al. kappa-Opioid agonists produce antinociception after i.v. and i.c.v. but not intrathecal administration in the rat. Br J Pharmacol. 1988; 93: 553-60).
The values emerged from the paw pressure test in the different treatment groups were compared with each other using the Generalized Linear Mixed Model (GLMM) followed by post-hoc analysis based on Tukey-Kramer correction for multiple comparisons, referring to the single treatment group, considering all the times.
The AUC was analyzed by a two-way factor analysis of variance (2x2 ANOVA), after plotting the mean values, according to the procedure shown by Slinker BK. The statistics of synergism. J Mol Cell Cardiol. 1998 Apr;30(4):723-31. The values were expressed as mean ± standard error mean (SEM). All the statistical analyses were carried out using the software SAS, version 9.4 (SAS Institute, Cary, NC, USA). The value p < 0.05 was considered significant.

[2] = system: collagen-induced arthritis; experiment: Paw volume by plethysmometry in collagen-induced arthritis (CIA) (Experiment 2); format: in vivo, Female Lewis rats; details: for Pr > F: 2x2 factorial analysis on swelling of the paw, PEA 30 mg/kg, ibuprofen 5 mg/kg, PEA*IBU = interaction (synergy)
Experimental: Rheumatoid arthritis is a disease characterized by inflammatory pain, in which the involved joints present swelling, stiffness and often erosive processes. Female Lewis rats were maintained on a 12/12 hour light/dark cycle, at constant temperature and humidity and acclimated for 1 week, with free access to water and standard diet. […] Arthritis score, change in paw volume (mL), and change in body weight (g) were measured as indicators of inflammatory pain. Arthritis severity was measured every other day starting on day 25, using the following score: 0 = no sign of arthritis; 1 = swelling and/or redness of the paw or toe; 2 = two joints involved; 3 = more than two joints involved; and 4 = severe arthritis of the entire paw and toes. The arthritis index for each subject was calculated by adding the four scores of the individual paws. The change in paw volume compared to day 21 was assessed every two days by plethysmometry (Ugo Basile) starting from day 25. The change in weight was measured for each animal on day 21 and then every two days starting from day 25.
The chosen inflammatory pain indicators were analyzed via Generalized Linear Model (GLM) followed by post-hoc analysis based on Tukey-Kramer correction for multiple comparisons. […] All analyzes were performed using SAS software, version 9.4 (SAS Institute, Cary, NC, USA).

Compound: CCCCCCCCCCCCCCCC(=O)NCCO [PEA, N-palmitoylethanolamide]
- Pr > F ([1]; ANOVA 2x2 on AUC of paw pressure test (Figure 2), diclofenac 3 mg/kg, line PEA*Dicl 3 = interaction (synergy)): 0.0002
- Pr > F ([1]; ANOVA 2x2 on AUC of paw pressure test (Figure 4), meloxicam 3 mg/kg, line PEA*Mel 3 = interaction (synergy)): 0.0003
- p with respect to the CFA group (pain tolerance threshold) ([1]; CFA-injected rats, single per os administration on day 7, micronized PEA 10 mg/kg and/or NSAID 3 mg/kg, GLMM with Tukey-Kramer): 0.9674 and 0.9588
- pain tolerance threshold with respect to the CFA group ([1]; CFA-injected rats, single per os administration on day 7 after CFA, micronized PEA 10 mg/kg and/or NSAID 3 mg/kg, T0-T60 min, all times considered): no significant difference; also recorded: no significant effect
- Pr > F ([2]; 6° giorno di trattamento): 0,0002
- Pr > F ([2]; 8° giorno di trattamento): <0,0001
- Pr > F ([2]; 10° giorno di trattamento): <0,0001
- effect on paw volume increase ([2]; single administration of PEA 30 mg/kg or ibuprofen 5 mg/kg (not combined)): had no effect
